Measured values as given in ChEMBL document CHEMBL1914375, “New PDE4 inhibitors based on pharmacophoric similarity between papaverine and tofisopam” (Bioorg Med Chem Lett, 2011).

How the values were obtained:
[1] = Inhibition of bovine aortic PDE4 using cAMP as substrate in presence of cGMP; design: species or system Bos taurus
[2] = Competitive inhibition of bovine aortic PDE4 using cAMP as substrate by Lineweaver-Burk plot analysis; design: species or system Bos taurus
Bos taurus [3] = species on record: Bos taurus; assay: Ratio of tofisopam IC50 to compound IC50 for bovine aortic PDE4 using cAMP as substrate in presence of cGMP
Bos taurus [4] = species on record: Bos taurus
Description: Activity of bovine aortic PDE4

Endothelial cell = assay: Inhibition of bovine aortic endothelial cells PDE2 using cAMP as substrate at 10 uM in presence of cGMP; assay type: cell-based; conditions: Bos taurus
Bos taurus [5] = species on record: Bos taurus; assay: Inhibition of bovine aortic PDE3 using cAMP as substrate at 10 uM in presence of rolipram
[6] = molecular target: cGMP-specific 3',5'-cyclic phosphodiesterase (Bos taurus) (UniProt Q28156); assay: Inhibition of bovine aortic PDE5 using cGMP as substrate at 10 uM in presence of EGTA
Bos taurus [7] = species on record: Bos taurus; assay: Inhibition of bovine aortic PDE1 using calmodulin activated cGMP as substrate at 10 uM
[8] = Inhibition of bovine aortic endothelial cells PDE2 using cAMP as substrate in presence of cGMP; assay type: cell-based, Bos taurus; conditions: endothelial cell
[9] = molecular target: cGMP-specific 3',5'-cyclic phosphodiesterase (Bos taurus, UniProt Q28156); assay: Inhibition of bovine aortic PDE5 using cGMP as substrate in presence of EGTA
[10] = Inhibition of bovine aortic PDE3 using cAMP as substrate in presence of rolipram; design: species or system Bos taurus

## COc1cc2c(cc1OC)N(C)C(=O)CN=C2N1CCCCC1
[1]
  IC50: > 20 µM

## CCOc1ccc(C(=O)c2ccc(N(C)Cc3ccccc3)cc2)cc1OCC
[1]
  IC50: 2.2 µM

## COc1ccc(C(=O)N2CCCCC2)cc1OC
[1]
  IC50: 9.6 µM

## CCOc1ccc(C2=NN(C)C(=O)Cc3ccccc32)cc1OCC
[1]
  IC50: 0.14 µM
[2]
  Ki: 0.066 µM

## CCOc1cc2c(cc1OCC)C(c1cc3ccccc3s1)=NN(C)C(=O)C2
[1]
  IC50: 0.087 µM
Bos taurus [3]
  Ratio IC50: 7

## COc1cc2c(cc1OC)N(C)C(=O)CN=C2c1ccc(Cl)cc1
[1]
  IC50: > 20 µM

## CCOc1ccc(C(=O)N2CCCCC2)cc1OCC
[1]
  IC50: 3.6 µM

## CCOc1ccc(C(=O)N2CCN(c3ccccc3)CC2)cc1OCC
[1]
  IC50: 17 µM

## CCOc1ccc(C(=O)c2cccc3ccccc23)cc1OCC
[1]
  IC50: 4.3 µM

## COc1cc2c(cc1OC)C(c1ccccc1)=NCC(=O)N2
[1]
  IC50: > 20 µM

## CCOc1cc2c(cc1OCC)C(c1cccc(Cl)c1)=NNC(=O)C2
[1]
  IC50: 1.4 µM

## CCOc1cc2c(cc1OCC)C(c1ccc(Cl)cc1)=NNC(=O)C2
[1]
  IC50: 0.8 µM

## COc1cc2c(cc1OC)C(c1cccc(Cl)c1)=NNC(=O)C2
[1]
  IC50: 7.7 µM

## COc1cc2c(cc1OC)N(C)C(=O)CN=C2c1cc2ccccc2s1
[1]
  IC50: 2.3 µM

## CCOc1ccc(C(=O)c2ccccc2)cc1OCC
[1]
  IC50: 2.9 µM

## Nc1ncnc2c1ncn2[C@@H]1O[C@@H]2COP(=O)(O)O[C@H]2[C@H]1O
Bos taurus [4]
  Km: 0.71 µM

## COc1cc2c(cc1OC)C(c1ccc3ccccc3c1)=NNC(=O)C2
[1]
  IC50: 1.5 µM

## CCOc1ccc(C(=O)c2ccc(Cl)cc2)cc1OCC
[1]
  IC50: > 20 µM

## COc1cc2c(cc1OC)N(C)C(=O)CN=C2C#Cc1ccccc1
[1]
  IC50: 1.6 µM

## CCOc1cc2c(cc1OCC)C(CC)C(C)=NN=C2c1ccc(Cl)cc1 (stereo not drawn)
[1]
  IC50: 0.2 µM
Endothelial cell
  inhibition: 38%
Bos taurus [5]
  inhibition: 4%
[6]
  inhibition: 39%

## CCOc1cc2c(cc1OCC)C(c1ccccc1)=NCC(=O)N2
[1]
  IC50: 0.95 µM

## COc1ccc(Cc2nccc3cc(OC)c(OC)cc23)cc1OC [PAPAVERINE]
[1]
  IC50: 1.1 µM

## CCOc1ccc(Cc2nccc3cc(OCC)c(OCC)cc23)cc1OCC [ETHAVERINE]
[1]
  IC50: 0.4 µM

## COc1cc2c(cc1OC)N(C)C(=O)CN=C2c1cccc(Cl)c1
[1]
  IC50: > 20 µM

## CCOc1cc2c(cc1OCC)C(c1ccccc1)=NNC(=O)C2
[1]
  IC50: 0.8 µM
Bos taurus [7]
  inhibition: 37%
Endothelial cell
  inhibition: 5%
Bos taurus [5]
  inhibition: 30%
[6]
  inhibition: 30%

## CCOc1ccc(C(=O)N2CCN(Cc3ccccc3)CC2)cc1OCC
[1]
  IC50: 2.3 µM

## CCOc1cc2c(cc1OCC)N(C)C(=O)CN=C2c1ccccc1
[1]
  IC50: 0.86 µM

## COc1cc2c(cc1OC)C(c1cccc(Cl)c1)=NN=C(C)C2 [GIRISOPAM]
[1]
  IC50: 3.2 µM
[8]
  IC50: 4 µM
[9]
  IC50: 12.5 µM
Bos taurus [5]
  inhibition: 22%

## COc1cc2c(cc1OC)C(c1ccccc1)=NNC(=O)C2
[1]
  IC50: 7.7 µM

## CCOc1ccc(C(=O)c2ccccc2Cl)cc1OCC
[1]
  IC50: 1.4 µM
Bos taurus [7]
  inhibition: 21%
Endothelial cell
  inhibition: 46%
Bos taurus [5]
  inhibition: 24%
[6]
  inhibition: 4%
[2]
  Ki: 0.42 µM

## CCOc1ccc(C(=O)c2ccc3ccccc3c2)cc1OCC
[1]
  IC50: 5 µM

## COc1cc2c(cc1OC)C(c1ccccc1)=NN(C)C(=O)C2
[1]
  IC50: 5.1 µM

## CCOc1ccc(C(=O)c2ccc(Cl)c(Cl)c2)cc1OCC
[1]
  IC50: 7.9 µM

## CCOc1ccc(C2=NNC(=O)Cc3ccccc32)cc1OCC
[1]
  IC50: 0.19 µM
Bos taurus [7]
  inhibition: 3%
Endothelial cell
  inhibition: 27%
Bos taurus [5]
  inhibition: 12%
[6]
  inhibition: 17%

## COc1cc2c(cc1OC)C(c1ccc(Cl)cc1)=NNC(=O)C2
[1]
  IC50: 1.5 µM

## COc1cc2c(cc1OC)C(c1cc3ccccc3s1)=NNC(=O)C2
[1]
  IC50: 1.2 µM

## COc1cc2c(cc1OC)C(c1cc3ccccc3s1)=NN(C)C(=O)C2
[1]
  IC50: 0.3 µM

## COc1cc2c(cc1OC)N(C)C(=O)CN=C2/C=C/c1ccccc1
[1]
  IC50: 8.4 µM

## COc1cc2c(cc1OC)N(C)C(=O)CN=C2CCc1ccccc1
[1]
  IC50: > 20 µM

## CCC1C(C)=NN=C(c2ccc(OC)c(OC)c2)c2cc(OC)c(OC)cc21 (stereo not drawn) [TOFISOPAM]
[1]
  IC50: 0.68 µM
[8]
  IC50: 0.9 µM
[10]
  IC50: 5.9 µM

## CCOc1cc2c(cc1OCC)C(c1cc3ccccc3s1)=NNC(=O)C2
[1]
  IC50: 0.26 µM

## COc1cc2c(cc1OC)N(C)C(=O)CN=C2c1ccccc1
[1]
  IC50: 18 µM

## CCOc1cc2c(cc1OCC)C(CC)C(C)=NN=C2c1cccc(Cl)c1 (stereo not drawn)
[1]
  IC50: 0.39 µM
Endothelial cell
  inhibition: 44%

## COc1cc2c(cc1OC)C(c1ccc(Cl)c(Cl)c1)=NNC(=O)C2
[1]
  IC50: 0.3 µM
